Measurements as given in patent US10561638B2, “Methods for treating dependence” (Biotie Therapies, Inc., priority 2007, dated 2020).

Assays:
[1] = target: T1, bovine dopamine β-hydroxylase (Bos taurus, UniProt P15101); assay: DBH assay, conversion of tyramine to octopamine; type: biochemical
T1 construct: Bovine DBH from adrenal glands was obtained from Sigma Chemical Co; purchased Sigma Chemicals (St Louis, Mo., USA); host or cells: bovine adrenal glands
T1 sequence (P15101 1-610): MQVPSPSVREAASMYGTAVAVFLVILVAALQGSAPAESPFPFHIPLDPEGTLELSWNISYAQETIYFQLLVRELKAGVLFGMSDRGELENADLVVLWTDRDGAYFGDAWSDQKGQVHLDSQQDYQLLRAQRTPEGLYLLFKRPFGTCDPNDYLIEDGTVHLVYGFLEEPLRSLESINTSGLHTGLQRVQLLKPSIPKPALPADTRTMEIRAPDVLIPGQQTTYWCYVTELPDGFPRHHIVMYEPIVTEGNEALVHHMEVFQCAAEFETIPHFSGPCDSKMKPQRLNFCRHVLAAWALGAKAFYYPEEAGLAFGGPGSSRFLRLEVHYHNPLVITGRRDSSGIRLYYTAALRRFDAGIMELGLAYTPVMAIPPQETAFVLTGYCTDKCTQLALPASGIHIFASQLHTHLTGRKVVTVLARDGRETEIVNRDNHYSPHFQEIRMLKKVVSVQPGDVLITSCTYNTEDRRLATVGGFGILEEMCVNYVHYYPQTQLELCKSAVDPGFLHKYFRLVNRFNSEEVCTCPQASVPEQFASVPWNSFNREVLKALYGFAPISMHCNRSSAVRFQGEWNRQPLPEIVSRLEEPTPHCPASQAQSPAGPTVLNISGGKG
Description: Bovine and human dopamine β-hydroxylase activity were assayed by measuring the conversion of tyramine to octopamine. Bovine adrenal dopamine β-hydroxylase was obtained from Sigma Chemicals (St Louis, Mo., USA) whereas human dopamine β-hydroxylase was purified from the culture medium of the neuroblastoma cell line SK-N-SH. The assay was performed at pH 5.2 and 32° C. in a medium containing 0.125 M NaAc, 10 mM fumarate, 0.5-2 μM CuSO4, 0.1 mg·ml^−1 catalase, 0.1 mM tyramine and 4 mM ascorbate. In a typical assay, 0.5-1 milliunits of enzyme were added to the reaction mixture and, subsequently, a substrate mixture containing catalase, tyramine and ascorbate was added to initiate the reaction (final volume of 200 μl). Samples were incubated with or without the appropriate concentration of nepicastat or Compound B at 37° C. for 30 to 40 minutes. The reaction was quenched by the stop solution containing 25 mM EDTA and 240 μM 3-hydroxytyramine (internal standard). The samples were analyzed for octopamine by reverse phase high pressure liquid chromatography (HPLC) using ultraviolet-detection at […]. The HPLC chromatography run was carried out at the flow rate of 1 ml·min^−1 using a LiChroCART 125-4 RP-18 column and isocratic elution with 10 mM acidic acid, 10 mM 1-heptane sulfonic acid, 12 mM tetrabutyl ammonium phosphate and 10% methanol. The remaining percent activity was calculated based on controls, corrected using internal standards and fitted to a non-linear four-parameter concentration-response curve.
DBH activity was assayed by measuring the conversion of tyramine to octopamine. […] The samples were analyzed for octopamine by reverse phase HPLC using UV detection at […]. The remaining percent activity was calculated based on controls (without inhibitor), corrected using internal standards and fitted to a non-linear 4-parameter concentration-response curve to obtain IC50 values.
An HPLC assay was used to measure DBH activity using tyramine and ascorbate as substrates. […] The samples (150 μl) were loaded to a Gilson autosampler and analyzed by HPLC using UV detection at 280 nm. […]

anesthetized beagle dogs = assay: Sympathetically-evoked responses in dogs after 4.5 days dosing; type: in vivo; details: 10 mg/kg/d for 4.5 days

Row | SMILES | IC50 ([1]; 0.1 mM tyramine, 4 mM ascorbate, pH 5.2) [nM] | potency of nepicastat relative to Compound B ([1]; bovine DBH) [fold] | potency of nepicastat relative to SKF-102698 ([1]; bovine enzyme) [fold] | blood pressure and heart rate increases in response to carotid artery occlusion (anesthetized beagle dogs) | blood pressure response to i.v. tyramine challenge (anesthetized beagle dogs) | heart rate response to i.v. tyramine challenge (anesthetized beagle dogs)
1 | Fc1cc(F)cc(Cn2cc[nH]c2=S)c1 [SKF-102698, reference compound] | 67 ± 4.2 | – | – | – | – | –
2 | Cl.NCc1c[nH]c(=S)n1[C@H]1CCc2c(F)cc(F)cc2C1 [nepicastat, (S)-5-Aminomethyl-1-(5,7-difluoro-1,2,3,4-tetrahydronaphth-2-yl)-2,3-dihydro-2-thioxo-1H-imidazole hydrochloride] | – | 3 | 8 | no statistically significant decrease | only slight and non-significant inhibition | significantly reduced the increase in heart rate
